Results taken from ChEMBL document CHEMBL1125240, “Synthesis and biological activity of 5,11-methylenetetrahydro-5- deazahomofolic acid” (J Med Chem, 1991).

Legend:
[1] = target: T1, Trifunctional purine biosynthetic protein adenosine-3 (Homo sapiens, UniProt P22102); assay: Compound was evaluated for the ability to inhibit Glycinamide ribonucleotide formyltransferase from Manca cells.; type: cell-based
T1 sequence (P22102 whole entry): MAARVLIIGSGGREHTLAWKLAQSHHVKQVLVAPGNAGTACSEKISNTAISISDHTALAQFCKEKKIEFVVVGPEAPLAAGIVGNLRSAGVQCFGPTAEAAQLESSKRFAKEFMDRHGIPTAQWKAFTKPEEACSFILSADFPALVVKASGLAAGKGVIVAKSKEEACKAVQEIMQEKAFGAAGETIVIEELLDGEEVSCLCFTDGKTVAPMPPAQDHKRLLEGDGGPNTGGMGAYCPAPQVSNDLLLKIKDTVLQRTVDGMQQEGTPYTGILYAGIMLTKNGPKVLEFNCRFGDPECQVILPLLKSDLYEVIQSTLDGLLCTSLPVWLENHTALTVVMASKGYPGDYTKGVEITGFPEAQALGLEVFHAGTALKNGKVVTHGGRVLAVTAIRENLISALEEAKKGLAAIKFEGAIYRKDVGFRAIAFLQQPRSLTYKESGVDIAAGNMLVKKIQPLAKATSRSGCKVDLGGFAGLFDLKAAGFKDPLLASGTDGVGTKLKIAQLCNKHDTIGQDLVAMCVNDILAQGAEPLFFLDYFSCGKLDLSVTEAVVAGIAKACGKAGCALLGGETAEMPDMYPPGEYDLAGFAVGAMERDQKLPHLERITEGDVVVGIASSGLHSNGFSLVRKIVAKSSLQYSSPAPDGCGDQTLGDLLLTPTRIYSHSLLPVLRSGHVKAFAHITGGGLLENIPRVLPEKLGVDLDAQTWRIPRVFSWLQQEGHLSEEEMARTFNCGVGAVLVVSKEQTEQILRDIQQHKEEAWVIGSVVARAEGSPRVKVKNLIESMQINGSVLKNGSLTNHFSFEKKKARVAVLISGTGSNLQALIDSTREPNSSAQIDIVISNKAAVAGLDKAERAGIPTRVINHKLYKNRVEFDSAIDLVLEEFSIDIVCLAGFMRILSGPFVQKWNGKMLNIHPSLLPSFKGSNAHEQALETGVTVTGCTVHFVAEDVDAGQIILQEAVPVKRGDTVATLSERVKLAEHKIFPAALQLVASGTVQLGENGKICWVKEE

Manca = assay: Compound was evaluated for the ability to inhibit growth of Manca human lymphoma cells.; type: functional, cell-based
Thymidylate synthase [2] = target: T2, Thymidylate synthase (Lactobacillus casei, UniProt P00469); assay: Compound was evaluated for the ability to inhibit thymidylate synthase from Lactobacillus casei cells.; set-up: species or system Lacticaseibacillus casei
T2 sequence (P00469 whole entry): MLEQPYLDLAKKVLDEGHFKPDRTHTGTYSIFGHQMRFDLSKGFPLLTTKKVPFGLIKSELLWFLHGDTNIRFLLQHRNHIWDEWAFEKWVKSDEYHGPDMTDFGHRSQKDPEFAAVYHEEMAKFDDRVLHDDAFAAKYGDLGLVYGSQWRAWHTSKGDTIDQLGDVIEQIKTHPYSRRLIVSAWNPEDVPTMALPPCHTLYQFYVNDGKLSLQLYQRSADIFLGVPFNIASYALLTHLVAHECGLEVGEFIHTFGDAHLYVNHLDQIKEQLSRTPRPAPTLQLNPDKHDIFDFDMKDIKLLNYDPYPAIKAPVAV

Thymidylate synthase [3] = target: Thymidylate synthase (Homo sapiens, UniProt P04818); assay: Compound was evaluated for the ability to inhibit thymidylate synthase from Manca cells.; type: cell-based
Sequence of Thymidylate synthase (Homo sapiens, UniProt P04818) (P04818 whole entry): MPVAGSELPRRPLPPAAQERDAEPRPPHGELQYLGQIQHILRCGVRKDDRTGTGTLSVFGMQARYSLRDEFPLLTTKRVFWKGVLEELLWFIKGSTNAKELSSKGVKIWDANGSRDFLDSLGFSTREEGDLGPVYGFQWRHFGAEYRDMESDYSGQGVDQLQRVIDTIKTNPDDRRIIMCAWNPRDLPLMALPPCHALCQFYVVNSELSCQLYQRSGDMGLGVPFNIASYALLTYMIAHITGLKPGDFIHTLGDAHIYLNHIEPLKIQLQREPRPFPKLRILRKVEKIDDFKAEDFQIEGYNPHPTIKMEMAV

- IC50 [1]: > 20 µM
- IC50 (Thymidylate synthase [2]): > 100 µM
- IC50 (Thymidylate synthase [3]): > 200 µM
Structure (SMILES): Nc1nc2c(c(=O)[nH]1)C1CN(c3ccc(C(=O)NC(CCC(=O)O)C(=O)O)cc3)CCC1CN2 (centres undefined)
- IC50 (Manca): > 14 µM
